Assay results from ChEMBL document CHEMBL3351747, “Structure-based design of β1i or β5i specific inhibitors of human immunoproteasomes” (J Med Chem, 2014).

What was measured:
[1] = biological target: T1, Proteasome subunit beta type-8 (Homo sapiens, UniProt P28062); test: Inhibition of proteasome subunit beta-5i in human Raji cells using BODIPY-NC005 by fluorescent densitometry; type: cell-based
T1 sequence (P28062 whole entry): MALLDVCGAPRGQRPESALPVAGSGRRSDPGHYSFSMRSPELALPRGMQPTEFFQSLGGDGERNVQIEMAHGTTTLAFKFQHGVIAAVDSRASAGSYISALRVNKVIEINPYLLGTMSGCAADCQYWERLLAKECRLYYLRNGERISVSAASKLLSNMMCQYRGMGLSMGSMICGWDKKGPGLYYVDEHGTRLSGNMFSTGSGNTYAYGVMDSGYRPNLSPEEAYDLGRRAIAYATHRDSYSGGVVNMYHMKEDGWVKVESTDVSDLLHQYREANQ

[2] = Inhibition of 20s proteasome subunit beta-5c in human Raji cells using BODIPY-NC005 by fluorescent densitometry; type: cell-based
[3] = biological target: T2, Proteasome subunit beta type-9 (Homo sapiens, UniProt P28065); test: Inhibition of proteasome subunit beta-1i in human Raji cells using BODIPY- epoxomicin by fluorescent densitometry; type: cell-based
T2 sequence (P28065 whole entry): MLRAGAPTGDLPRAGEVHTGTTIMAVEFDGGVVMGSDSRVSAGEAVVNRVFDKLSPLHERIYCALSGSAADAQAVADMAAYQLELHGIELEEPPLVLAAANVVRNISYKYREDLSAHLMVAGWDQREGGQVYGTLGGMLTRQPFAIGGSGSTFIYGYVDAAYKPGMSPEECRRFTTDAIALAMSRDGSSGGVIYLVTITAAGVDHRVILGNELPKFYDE

[4] = Inhibition of 20s proteasome subunit beta-1c in human Raji cells using BODIPY- epoxomicin by fluorescent densitometry; type: cell-based
[5] = biological target: T3, Proteasome subunit beta type-10 (Homo sapiens, UniProt P40306); test: Inhibition of proteasome subunit beta-2i in human Raji cells using BODIPY- epoxomicin by fluorescent densitometry; type: cell-based
T3 sequence (P40306 whole entry): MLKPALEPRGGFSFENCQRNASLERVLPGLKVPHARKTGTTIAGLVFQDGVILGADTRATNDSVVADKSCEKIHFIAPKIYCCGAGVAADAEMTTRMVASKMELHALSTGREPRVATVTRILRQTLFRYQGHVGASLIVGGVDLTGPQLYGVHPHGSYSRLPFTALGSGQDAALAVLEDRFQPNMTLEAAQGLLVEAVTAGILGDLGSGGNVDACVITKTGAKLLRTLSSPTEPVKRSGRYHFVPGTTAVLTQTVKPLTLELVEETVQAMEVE

[6] = Inhibition of 20s proteasome subunit beta-2c in human Raji cells using BODIPY- epoxomicin by fluorescent densitometry; type: cell-based
[7] = biological target: T1, Proteasome subunit beta type-8; test: Inhibition of proteasome subunit beta-5i in human RPMI8226 cells using BODIPY-NC005 by fluorescent densitometry; type: cell-based, RPMI-8226
[8] = Inhibition of 20s proteasome subunit beta-5c in human RPMI8226 cells using BODIPY-NC005 by fluorescent densitometry; type: cell-based; conditions: rpmi-8226
[9] = biological target: T2, Proteasome subunit beta type-9; test: Inhibition of proteasome subunit beta-1i in human RPMI8226 cells using BODIPY-NC001 by fluorescent densitometry; type: cell-based, RPMI-8226
[10] = Inhibition of 20s proteasome subunit beta-1c in human RPMI8226 cells using BODIPY-NC001 by fluorescent densitometry; type: cell-based; conditions: rpmi-8226
[11] = biological target: T3, Proteasome subunit beta type-10; test: Inhibition of proteasome subunit beta-2i in human RPMI8226 cells using BODIPY-epoxomicin by fluorescent densitometry; type: cell-based, RPMI-8226
[12] = Inhibition of 20s proteasome subunit beta-2c in human RPMI8226 cells using BODIPY-epoxomicin by fluorescent densitometry; type: cell-based; conditions: rpmi-8226
Raji = test: Ratio of IC50 for 20s proteasome subunit beta-1c to IC50 for proteasome subunit beta-1i in human Raji cells; type: cell-based
[13] = Inhibition of proteasome subunit beta-5c/i in human RPMI8226 cells by fluorescent densitometry; type: cell-based; conditions: rpmi-8226
[14] = Inhibition of proteasome subunit beta-2c/i in human RPMI8226 cells by fluorescent densitometry; type: cell-based; conditions: rpmi-8226
RPMI-8226 [15] = test: Ratio of IC50 for 20s proteasome subunit beta-1c to IC50 for proteasome subunit beta-1i in human RPMI8226 cells; type: cell-based
RPMI-8226 [16] = test: Ratio of IC50 for proteasome subunit beta-1i to IC50 for proteasome subunit beta-5c/I in human RPMI8226 cells; type: cell-based

Row | Structure (SMILES) | IC50 [1] | IC50 [2] | IC50 [3] | IC50 [4] | IC50 [5] | IC50 [6] | IC50 [7] | IC50 [8] | IC50 [9] | IC50 [10] | IC50 [11] | IC50 [12] | Ratio IC50 (Raji) | IC50 [13] | IC50 [14] | Ratio IC50 (RPMI-8226 [15]) | Ratio IC50 (RPMI-8226 [16])
1 | CC1=C(C(=O)N[C@H](C)C(=O)N[C@@H](Cc2c[nH]c3ccccc23)C(=O)N[C@H](/C=C/S(C)(=O)=O)Cc2ccccc2)Cc2ccccc21 | 0.053 µM | 25 µM | > 100 µM | > 100 µM | > 100 µM | > 100 µM | 0.39 µM | > 100 µM | > 100 µM | > 100 µM | > 100 µM | > 100 µM |  |  |  |  | 
2 | CC1=C(C(=O)N[C@H](C)C(=O)N[C@@H](Cc2c[nH]c3ccccc23)C(=O)N[C@@H](CC2CCCCC2)C(=O)[C@@]2(C)CO2)Cc2ccccc21 | 0.0083 µM | 4.6 µM | 7.1 µM | > 10 µM | > 10 µM | > 10 µM | 0.23 µM | > 100 µM | 16 µM | > 100 µM | > 100 µM | > 100 µM |  |  |  |  | 
3 | CCCC[C@H](NC(=O)[C@@H]1CC(F)(F)CN1C(=O)[C@H](C)NC(=O)CN=[N+]=[N-])C(=O)N[C@@H](CC1CCCCC1)C(=O)[C@@]1(C)CO1 |  |  | 0.095 µM | 24 µM | > 100 µM |  |  |  | 0.13 µM | 47 µM |  |  | 252 | 65 µM | > 100 µM | 360 | 500
4 | CCCC[C@H](NC(=O)[C@@H]1CCCN1C(=O)[C@H](C)NC(=O)CN=[N+]=[N-])C(=O)N[C@@H](CC(C)C)C(=O)[C@@]1(C)CO1 |  |  | 0.045 µM | 0.088 µM |  |  |  |  | 0.14 µM | 0.37 µM |  |  | 2 | > 10 µM | > 10 µM | 3 | > 70
